IC50 data for 27 compounds are collected here from patent US6838456B2, “Condensed pyridoindole derivatives” (Lilly ICOS LLC, priority 2000, dated 2005).

Structures are written as SMILES. pIC50: −log10 of the molar value.

A word on the pIC50: it is −log10 of the IC50, conventionally taken in molar units.

This experiment concerns the target human recombinant PDE5 (Homo sapiens, UniProt O76074). Briefly: Inhibitory effect on cGMP-PDE (one-step assay, 8-[H3]-cGMP). To be noted: in vitro. The experiment is classed as biochemical. Here is the method:
The compounds of structural formula (I) were tested for an ability to inhibit PDE5. The ability of a compound to inhibit PDE5 activity is related to the IC50 value for the compound, i.e., the concentration of inhibitor required for 50% inhibition of enzyme activity. The IC50 value for compounds of structural formula (I) were determined using recombinant human PDE5.
cGMP-PDE activity of compounds of the present invention was measured using a one-step assay adapted from Wells et al., Biochim. Biophys. Acta, 384, 430 (1975). The reaction medium contained 50 mM Tris-HCl, pH 7.5, 5 mM magnesium acetate, 250 μg/ml 5′-Nucleotidase, 1 mM EGTA, and 0.15 μM 8-[H^3]-cGMP. Unless otherwise indicated, the enzyme used was a human recombinant PDE5 (ICOS Corp., Bothell, Wash.).
Compounds of the invention were dissolved in DMSO finally present at 2% in the assay.

As for `CCOC(=O)c1c(C(=O)OCC)c2n(c1C)[C@H](c1ccc3c(c1)OCO3)c1[nH]c3ccccc3c1C2` [Example 1, (R)-5-Benzo[1,3]dioxol-5-yl-3-methyl-6,11-dihydro-5H-indolizino[6,7-b]indole-1,2-dicarboxylic acid diethyl ester], the pIC50 was 8.25. The figure for `CCOC(=O)c1cc(CNCc2ccccc2)n2c1Cc1c([nH]c3ccccc13)C2c1ccc2c(c1)OCO2` (stereo not drawn) [Example 6] is 8.00; for `CCOC(=O)c1cc(CN)n2c1Cc1c([nH]c3ccccc13)C2c1ccc2c(c1)CCO2` (stereo not drawn) [Example 8] it is 7.40. Turning to `c1ccc2c3c([nH]c2c1)C(c1ccc2c(c1)OCO2)n1cccc1C3` (stereo not drawn) [Example 10], the negative-log IC50 (pIC50) is 6.85. `CCOC(=O)c1c(C(=O)OCC)c2n(c1CC)C(c1ccc3c(c1)OCO3)c1[nH]c3ccccc3c1C2` (stereo not drawn) [Example 12]: the pIC50 was 8.00. Take `CCOC(=O)c1c(C(=O)O)c(CC)n2c1Cc1c([nH]c3ccccc13)C2c1ccc2c(c1)OCO2` (stereo not drawn) [Example 13]: the pIC50 was 8.23.

In the case of `O=C(NCC1CCCO1)c1ccn2c1Cc1c([nH]c3ccccc13)C2c1ccc2c(c1)OCO2` (stereo not drawn) [Example 14], the pIC50 is 8.24.

Turning to `CCOC(=O)c1c(C(=O)OCC)c(C(C)C)n2c1Cc1c([nH]c3ccccc13)C2c1ccc2c(c1)OCO2` (stereo not drawn) [Example 15], the pIC50 was 6.72. The figure for `CN1CCC(N(C)C(=O)c2ccn3c2Cc2c([nH]c4ccccc24)C3c2ccc3c(c2)OCO3)CC1` (stereo not drawn) [Example 16] is 6.48.

As for `O=C(NCCn1cccn1)c1ccn2c1Cc1c([nH]c3ccccc13)C2c1ccc2c(c1)OCO2` (stereo not drawn) [Example 17], the pIC50 is 8.10. The figure for `CCOC(=O)c1cc(CO)n2c1Cc1c([nH]c3ccccc13)C2c1ccc2c(c1)OCO2` (stereo not drawn) [Example 18] is 8.00; for `CCOC(=O)c1cc(C(C)C)n2c1Cc1c([nH]c3ccccc13)C2c1ccc2c(c1)OCO2` (stereo not drawn) [Example 19] it is 6.34. For the compound `O=C(NCc1cccc[n+]1[O-])c1ccn2c1Cc1c([nH]c3ccccc13)C2c1ccc2c(c1)OCO2` (stereo not drawn) [Example 20], the pIC50 is 8.82.

`CCOC(=O)c1cn2c(c1C(=O)OCC)Cc1c([nH]c3ccccc13)C2c1ccc2c(c1)OCO2` (stereo not drawn) [Example 21]: the negative-log IC50 (pIC50) is 8.92. With `O=C(O)C1CCN(C(=O)c2ccn3c2Cc2c([nH]c4ccccc24)C3c2ccc3c(c2)OCO3)CC1` (stereo not drawn) [Example 22], the pIC50 was 8.52. The figure for `CCOC(=O)c1cc(C=O)n2c1Cc1c([nH]c3ccccc13)C2c1ccc2c(c1)OCO2` (stereo not drawn) [Example 23] is 8.41; for `O=C(NCCc1ccccn1)c1ccn2c1Cc1c([nH]c3ccccc13)C2c1ccc2c(c1)OCO2` (stereo not drawn) [Example 24] it is 8.68. Then `O=C(NCc1cccnc1)c1ccn2c1Cc1c([nH]c3ccccc13)C2c1ccc2c(c1)OCO2` (stereo not drawn) [Example 25], with 8.23; and `CN(C)CCNC(=O)c1ccn2c1Cc1c([nH]c3ccccc13)C2c1ccc2c(c1)OCO2` (stereo not drawn) [Example 26], with 6.96; and `N#Cc1ccn2c1Cc1c([nH]c3ccccc13)C2c1ccc2c(c1)OCO2` (stereo not drawn) [Example 27], with 8.44. As to `O=C(NCc1ccccn1)c1ccn2c1Cc1c([nH]c3ccccc13)C2c1ccc2c(c1)OCO2` (stereo not drawn) [Example 28], the pIC50 was 8.43. `CN(C(=O)O)C(=O)c1ccn2c1Cc1c([nH]c3ccccc13)C2c1ccc2c(c1)OCO2` (stereo not drawn) [Example 29]: the negative-log IC50 (pIC50) is 8.42. Then `NCCNC(=O)c1ccn2c1Cc1c([nH]c3ccccc13)C2c1ccc2c(c1)OCO2` (stereo not drawn) [Example 30], with 8.00; and `O=C(NCCN1CCOCC1)c1ccn2c1Cc1c([nH]c3ccccc13)C2c1ccc2c(c1)OCO2` (stereo not drawn) [Example 31], with 7.70.

As for `CCOC(=O)c1ccn2c1Cc1c([nH]c3ccccc13)C2c1ccc2c(c1)OCO2` (stereo not drawn) [Example 35], the negative-log IC50 (pIC50) was 8.26. Then `O=C(O)c1ccn2c1Cc1c([nH]c3ccccc13)C2c1ccc2c(c1)OCO2` (stereo not drawn) [Example 36], with 8.00; and `CCc1cc(C(=O)NCc2ccccn2)c2n1C(c1ccc3c(c1)OCO3)c1[nH]c3ccccc3c1C2` (stereo not drawn) [Example 53], with 7.30.
